Measured values reported in patent publication US9409866B2, “Pyridine-2-amides useful as CB2 agonists” (Hoffmann-La Roche Inc., priority 2012, dated 2016).
Like-named read-outs stand apart in the source and are kept apart here.

Experiments:
human CB2 receptors = human CB2 receptors (Homo sapiens (Human), UniProt P34972); test: functional cAMP assay, CHO cells expressing human CB2; format: cell-based
Method in brief: (§1)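 CHO cells expressing human CB1 or CB2 were preincubated 30 min at 30 °C in Krebs Ringer bicarbonate with 1 mM IBMX, then exposed to compound 30 min at 30 °C. cAMP quantified by TR-FRET competition (Alexa700 antibody/ruthenium-cAMP) against a 10 μM–0.13 nM standard curve; EC50 derived.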

human CB1 receptors = human CB1 receptors (Homo sapiens (Human), UniProt P21554); test: functional cAMP assay, CHO cells expressing human CB1; format: cell-based
Method in brief: as §1

[1] = Human CB1 EC50 (uM), functional cAMP assay, CHO cells expressing human CB1
[2] = functional cAMP assay, CHO cells expressing human CB1; read-out: Human CB1 EC50
[3] = read-out: Human CB1 EC50; functional cAMP assay, CHO cells expressing human CB1

human CB1 receptors, sequence (P21554 whole entry): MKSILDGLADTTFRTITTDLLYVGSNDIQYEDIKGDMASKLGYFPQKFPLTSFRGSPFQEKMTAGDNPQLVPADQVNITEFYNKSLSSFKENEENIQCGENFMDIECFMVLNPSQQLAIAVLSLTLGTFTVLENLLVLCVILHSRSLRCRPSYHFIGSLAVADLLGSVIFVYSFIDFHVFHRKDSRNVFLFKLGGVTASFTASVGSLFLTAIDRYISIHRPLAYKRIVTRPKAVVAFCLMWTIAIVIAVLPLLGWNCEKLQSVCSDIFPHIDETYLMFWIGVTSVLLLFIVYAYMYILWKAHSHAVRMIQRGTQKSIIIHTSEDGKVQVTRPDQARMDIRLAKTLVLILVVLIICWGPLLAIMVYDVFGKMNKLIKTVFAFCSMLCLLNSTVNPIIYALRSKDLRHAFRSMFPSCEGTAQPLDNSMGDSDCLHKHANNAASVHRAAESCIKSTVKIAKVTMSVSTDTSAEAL
human CB2 receptors, sequence (P34972 whole entry): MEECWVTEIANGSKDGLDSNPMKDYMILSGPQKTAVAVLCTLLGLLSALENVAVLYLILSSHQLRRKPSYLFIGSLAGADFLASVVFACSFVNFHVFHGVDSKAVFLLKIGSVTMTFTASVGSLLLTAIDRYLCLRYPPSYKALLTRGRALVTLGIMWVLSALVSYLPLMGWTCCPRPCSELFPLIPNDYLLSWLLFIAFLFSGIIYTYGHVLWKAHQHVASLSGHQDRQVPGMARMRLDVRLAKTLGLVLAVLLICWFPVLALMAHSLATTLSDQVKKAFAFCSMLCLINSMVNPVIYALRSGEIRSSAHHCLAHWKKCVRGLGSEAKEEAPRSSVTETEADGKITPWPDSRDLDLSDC

| Structure (SMILES) | EC50 (human CB2 receptors; Human CB2 EC50 (uM)) [µM] | EC50 (human CB1 receptors; [1]) [µM] | EC50 (human CB2 receptors; read-out: Human CB2 EC50) [µM] | EC50 (human CB1 receptors; [2]) [µM] | EC50 (human CB1 receptors; [3]) [µM] |
| --- | --- | --- | --- | --- | --- |
| CC(CF)Oc1cc(C(=O)NC2(CC(N)=O)CS(=O)(=O)C2)ncc1C1CC1 (single isomer, unassigned) [Example 291, N-[3-(2-amino-2-oxoethyl)-1,1-dioxothietan-3-yl]-5-cyclopropyl-4-[1-fluoropropan-2-yl]oxypyridine-2-carboxamide] | 0.0003 | > 10 |  |  |  |
| Cc1nnc(C(NC(=O)c2cc(OCC(F)(F)F)c(C3CC3)cn2)C(C)(C)C)o1 (stereo not drawn) [Example 174, 5-cyclopropyl-N-[2,2-dimethyl-1-(5-methyl-1,3,4-oxadiazol-2-yl)propyl]-4-(2,2,2-trifluoroethoxy)pyridine-2-carboxamide] |  |  | 0.0218 | > 10 |  |
| Cc1nc([C@@](C)(NC(=O)c2cc(OCC(F)(F)F)c(C3CC3)cn2)C2CC2)no1 (single isomer, unassigned; enantiomer a) [Example 61, 5-Cyclopropyl-4-(2,2,2-trifluoro-ethoxy)-pyridine-2-carboxylic acid [1-cyclopropyl-1-(5-methyl-[1,2,4]oxadiazol-3-yl)-ethyl]-amide (enantiomer A)] | 0.0276 | > 10 |  |  |  |
| CNC(=O)C(NC(=O)c1cc(O[C@@H](C)C(F)(F)F)c(C2CC2)cn1)C(C)(C)O (stereo partly drawn) [Example 253, 5-cyclopropyl-N-[3-hydroxy-3-methyl-1-(methylamino)-1-oxobutan-2-yl]-4-[(2S)-1,1,1-trifluoropropan-2-yl]oxypyridine-2-carboxamide] |  |  | 0.0019 | > 10 |  |
| CCC(CC)(CO)NC(=O)c1cc(OCC2CC2)c(Cl)cn1 [Example 21, 5-Chloro-4-cyclopropylmethoxy-pyridine-2-carboxylic acid (1-ethyl-1-hydroxymethyl-propyl)-amide] |  |  | 0.0404 | > 10 |  |
| C[C@H](Oc1cc(C(=O)NC(C(N)=O)C(C)(C)C)ncc1C1CC1)C(F)(F)F (stereo partly drawn) [Example 240, N-(1-amino-3,3-dimethyl-1-oxobutan-2-yl)-5-cyclopropyl-4-[(2S)-1,1,1-trifluoropropan-2-yl]oxypyridine-2-carboxamide] |  |  | 0.0552 | > 10 |  |
| Cn1nnc(C(C)(CC2CC2)NC(=O)c2cc(OCC(F)(F)F)c(C3CC3)cn2)n1 (stereo not drawn) [Example 150, 5-cyclopropyl-N-[1-cyclopropyl-2-(2-methyltetrazol-5-yl)propan-2-yl]-4-(2,2,2-trifluoroethoxy)pyridine-2-carboxamide] |  |  | 0.109 | > 10 |  |
| CC(CC(N)=O)(NC(=O)c1cc(OCC(F)(F)F)c(C2(F)CCC2)cn1)C1CC1 (single isomer, unassigned) [Example 310, N-[4-amino-2-cyclopropyl-4-oxobutan-2-yl]-5-(1-fluorocyclobutyl)-4-(2,2,2-trifluoroethoxy)pyridine-2-carboxamide] | 0.0154 | 2.44 |  |  |  |
| COC(=O)C(C)(C)NC(=O)c1cc(I)c(Cl)cn1 [Example 1, 2-[(5-Chloro-4-iodo-pyridine-2-carbonyl)-amino]-2-methyl-propionic acid methyl ester] |  |  | 0.0356 | > 10 |  |
| Cc1nc(C(C)(CC2CC2)NC(=O)c2cc(OCCF)c(C3CC3)cn2)no1 (single isomer, unassigned) [Example 156, 5-cyclopropyl-N-[1-cyclopropyl-2-(5-methyl-1,2,4-oxadiazol-3-yl)propan-2-yl]-4-(2-fluoroethoxy)pyridine-2-carboxamide] | 0.0047 | > 10 |  |  |  |
| CC(C)(C)C(NC(=O)c1cc(OCC(F)(F)F)c(C2CC2)cn1)c1noc(N)n1 (single isomer, unassigned) [Example 227, N-[1-(5-amino-1,2,4-oxadiazol-3-yl)-2,2-dimethylpropyl]-5-cyclopropyl-4-(2,2,2-trifluoroethoxy)pyridine-2-carboxamide] | 0.015 |  |  |  | > 10 |
| CC(C)(C)C(NC(=O)c1cc(OCC(F)(F)F)c(C2CC2)cn1)C(N)=O (stereo not drawn) [Example 194, N-(1-amino-3,3-dimethyl-1-oxobutan-2-yl)-5-cyclopropyl-4-(2,2,2-trifluoroethoxy)pyridine-2-carboxamide] |  |  | 0.0151 | > 10 |  |
| CNC(=O)CC(C)(NC(=O)c1cc(OCC(F)(F)F)c(C2CC2)cn1)C1CC1 (single isomer, unassigned) [Example 242, 5-cyclopropyl-N-[2-cyclopropyl-4-(methylamino)-4-oxobutan-2-yl]-4-(2,2,2-trifluoroethoxy)pyridine-2-carboxamide] | 0.237 |  |  |  | > 10 |
| Cc1cnc(C(C)(CC2CC2)NC(=O)c2cc(OCC(F)(F)F)c(C3CC3)cn2)s1 (stereo not drawn) [Example 177, 5-cyclopropyl-N-[1-cyclopropyl-2-(5-methyl-1,3-thiazol-2-yl)propan-2-yl]-4-(2,2,2-trifluoroethoxy)pyridine-2-carboxamide] |  |  | 0.0124 | > 10 |  |
| Cc1nc(C(NC(=O)c2cc(OCC(F)(F)F)c(C3CC3)cn2)C(C)(C)C)no1 (single isomer, unassigned) [Example 211, 5-cyclopropyl-N-[2,2-dimethyl-1-(5-methyl-1,2,4-oxadiazol-3-yl)propyl]-4-(2,2,2-trifluoroethoxy)pyridine-2-carboxamide] | 0.0048 | > 10 |  |  |  |
| Cc1nc(C(C)(CS(C)(=O)=O)NC(=O)c2cc(OCC(F)(F)F)c(C3CCC3)cn2)no1 (single isomer, unassigned) [Example 124, 5-cyclobutyl-N-[1-methyl-1-(5-methyl-1,2,4-oxadiazol-3-yl)-2-methylsulfonyl-ethyl]-4-(2,2,2-trifluoroethoxy)pyridine-2-carboxamide] | 0.0159 | > 10 |  |  |  |
| CC(C)CC(C)(NC(=O)c1cc(OCC(F)(F)F)c(C2CC2)cn1)C(N)=O (stereo not drawn) [Example 82, 5-Cyclopropyl-4-(2,2,2-trifluoro-ethoxy)-pyridine-2-carboxylic acid (1-carbamoyl-1,3-dimethyl-butyl)-amide] |  |  | 0.0805 | > 10 |  |
| CC(C)(C)C(NC(=O)c1cc(OCC(F)(F)F)c(C2CC2)cn1)c1noc(N)n1 (stereo not drawn) [Example 192, N-[1-(5-amino-1,2,4-oxadiazol-3-yl)-2,2-dimethylpropyl]-5-cyclopropyl-4-(2,2,2-trifluoroethoxy)pyridine-2-carboxamide] |  |  | 0.0044 | > 10 |  |
| Cc1nc(C(NC(=O)c2cc(OCC(F)(F)F)c(C3CC3)cn2)C(C)(C)C)no1 (single isomer, unassigned) [Example 212, 5-cyclopropyl-N-[2,2-dimethyl-1-(5-methyl-1,2,4-oxadiazol-3-yl)propyl]-4-(2,2,2-trifluoroethoxy)pyridine-2-carboxamide] | 0.005 |  |  |  | > 10 |
| Cn1nnnc1C(C)(CC1CC1)NC(=O)c1cc(OCC(F)(F)F)c(C2CC2)cn1 (stereo not drawn) [Example 151, 5-cyclopropyl-N-[1-cyclopropyl-2-(1-methyltetrazol-5-yl)propan-2-yl]-4-(2,2,2-trifluoroethoxy)pyridine-2-carboxamide] |  |  | 0.0198 | > 10 |  |
| O=C(NCC1(CO)CCCC1)c1cc(OCC2CC2)c(Cl)cn1 [Example 20, 5-Chloro-4-cyclopropylmethoxy-pyridine-2-carboxylic acid (1-hydroxymethyl-cyclopentylmethyl)-amide] |  |  | 0.0232 | > 10 |  |
